23 compounds from patent US9133157B2, “HIV protease inhibitors” (Merck Canada Inc., priority 2011, dated 2015) can be followed below.

pIC50: −log10 of the molar value.

This assay has as its target WT HIV-1 protease (Human immunodeficiency virus type 1 group M subtype B (isolate HXB2) (HIV-1), UniProt P04585). In words: Assay for inhibition of microbial expressed HIV protease (Procedure A, peptide substrate, HPLC fluorescence detection). It is filed as biochemical. The conditions noted are these: WT HIV-1 protease 10 pM, substrate 400 micromolar, pH 5.5, 30 min preincubation, 1 hour at 30° C.; read-out: Enzyme inhibition IC50. The protocol:
The inhibition of WT HIV-1 protease was studied using the reaction of the protease (expressed in Eschericia coli) with a peptide substrate [Val-Ser-Gln-Asn-(betanaphthyl)Ala-Pro-Ile-Val (SEQ ID NO:1)]. Compounds were tested using Procedure A. In Procedure A, the test compound was first preincubated with the enzyme in assay buffer (50 mM sodium acetate, pH 5.5, 100 mM NaCl, and 0.1% BSA) for 30 minutes at room temperature. Substrate was then added to 400 micromolar in a total volume of 80 microliters containing 10 picomolar HIV-1 protease and the reaction was incubated for 1 hour at 30° C. The reaction was quenched with the addition of 120 microliters of 10% phosphoric acid. The product formation was determined after separation of product and substrate on a Zorbax Eclipse XDB-C18 column (Agilent Technologies, Santa Clara, Calif.) connected to an Agilent 1100 high performance liquid chromatography system with fluorescence detection (excitation 270 nanometer and emission 330 nanometer).
As to `COC(=O)N[C@H](C(=O)N[C@H](c1ccc([C@@H](CO)N(CCC(C)(C)C)S(=O)(=O)c2cc3ccccc3[nH]2)s1)C(F)(F)F)C(c1ccccc1)c1ccccc1` [Example 55, N-[(1S)-1-(5-{(1R)-1-[(3,3-dimethylbutyl)(1H-indol-2-ylsulfonyl)amino]-2-hydroxyethyl}thiophen-2-yl)-2,2,2-trifluoroethyl]-Nα-(methoxycarbonyl)-β-phenyl-L-phenylalaninamide], the negative logarithm of the IC50 (pIC50) was 7.34.

In the case of `COC(=O)N[C@H](C(=O)NC(C)(C)c1ccc(C(CO)N(CCC(C)C)S(=O)(=O)c2ccccc2)s1)C(c1ccccc1)c1ccccc1` (some centres unmarked) [Example 64], the pIC50 is 8.19.

Take `COC(=O)N[C@H](C(=O)N[C@@H](C)c1ccc([C@@H](CO)N(C(C)C)S(=O)(=O)c2ccc(N)cc2)s1)C(c1ccccc1)c1ccccc1` [Example 75, N-[(1S)-1-{5-[(1R)-1-{[(4-aminophenyl)sulfonyl](propan-2-yl)amino}-2-hydroxyethyl]thiophen-2-yl}ethyl]-Nα-(methoxycarbonyl)-β-phenyl-L-phenylalaninamide]: the negative logarithm of the IC50 (pIC50) was 8.10.

Turning to `COC(=O)N[C@H](C(=O)N[C@H](c1ccc([C@@H](CO)N(CCC(C)(C)C)S(=O)(=O)c2ccc(N)c(Cl)c2)s1)C(F)(F)F)C(c1ccccc1)c1ccccc1` [Example 116, N-[(1S)-1-(5-{(1R)-1-[[(4-amino-3-chlorophenyl)sulfonyl](3,3-dimethylbutyl)amino]-2-hydroxyethyl}-2-thienyl)-2,2,2-trifluoroethyl]-Nα-(methoxycarbonyl)-β-phenyl-L-phenylalaninamide], the pIC50 was 8.45.

With `CC(C)CN(C(CO)c1ccc(CNC(=O)C(NC(=O)c2ccccc2)C(c2ccccc2)c2cccc3ccncc23)s1)S(=O)(=O)c1ccc2ncsc2c1` (centres unmarked) [Example 129, N-[1-[[5-[1-(1,3-benzothiazol-6-ylsulfonyl(isobutyl)amino)-2-hydroxy-ethyl]-2-thienyl]methylcarbamoyl]-2-(8-isoquinolyl)-2-phenyl-ethyl]benzamide], the pIC50 was 8.15.

`[2H]C([2H])([2H])C(N([C@H](CO)c1ccc([C@@H](NC(=O)[C@@H](NC(=O)OC)C(c2ccccc2)c2ccccc2)C(F)(F)F)s1)S(=O)(=O)c1ccc(N)cc1)C([2H])([2H])[2H]` [Example 47, N-[(1S)-1-{5-[(1R)-1-{[(4-aminophenyl)sulfonyl][(1,1,1,3,3,3-^2H6)propan-2-yl]amino}-2-hydroxyethyl]thiophen-2-yl}-2,2,2-trifluoroethyl]-Nα-(methoxycarbonyl)-β-phenyl-L-phenylalaninamide]: the negative-log IC50 (pIC50) was 7.47.

With `COC(=O)N[C@H](C(=O)N[C@H](c1ccc([C@@H](CO)N(CCC2CC2)S(=O)(=O)c2ccc(N)cc2)s1)C(F)(F)F)C(c1ccccc1)c1ccccc1` [Example 86], the negative-log IC50 (pIC50) is 9.47.

As to `COC(=O)N[C@H](C(=O)N[C@H](c1ccc([C@@H](CO)N(CCC(C)(C)C)S(=O)(=O)c2ccc(N)cc2F)s1)C(F)(F)F)C(c1ccccc1)c1ccccc1` [Example 98, N-[(1S)-1-{5-[(1R)-1-{[(4-amino-2-fluorophenyl)sulfonyl](3,3-dimethylbutyl)amino}-2-hydroxyethyl]thiophen-2-yl}-2,2,2-trifluoroethyl]-Nα-(methoxycarbonyl)-β-phenyl-L-phenylalaninamide], the negative logarithm of the IC50 (pIC50) is 9.36.

As for `COC(=O)N[C@H](C(=O)N[C@H](c1ccc([C@@H](CO)N(C(C)C)S(=O)(=O)c2ccc(N)s2)s1)C(F)(F)F)C(c1ccccc1)c1ccccc1` [Example 50, N-[(1S)-1-{5-[(1R)-1-{[(5-aminothiophen-2-yl)sulfonyl](propan-2-yl)amino}-2-hydroxyethyl]thiophen-2-yl}-2,2,2-trifluoroethyl]-Nα-(methoxycarbonyl)-β-phenyl-L-phenylalaninamide], the negative logarithm of the IC50 (pIC50) was 6.92.

As to `COC(=O)N[C@H](C(=O)NCc1ccc([C@@H](CO)N(CC(C)C)S(=O)(=O)c2ccc(N)cc2)s1)C(c1ccccc1)c1ccccc1` [Example 10, N-({5-[(1R)-1-{[(4-aminophenyl)sulfonyl](2-methylpropyl)amino}-2-hydroxyethyl]thiophen-2-yl}methyl)-Nα-(methoxycarbonyl)-β-phenyl-L-phenylalaninamide], the negative logarithm of the IC50 (pIC50) is 8.59.

`COC(=O)N[C@H](C(=O)NCc1csc(C(CO)N(CCC(C)C)S(=O)(=O)c2ccccc2)c1)C(c1ccccc1)c1ccccc1` (stereo partly drawn) [Example 1, N-[(5-{2-hydroxy-1-[(3-methylbutyl)(phenylsulfonyl)amino]ethyl}thiophen-3-yl)methyl]-Nα-(methoxycarbonyl)-β-phenyl-L-phenylalaninamide]: the pIC50 was 7.14.

As to `COC(=O)N[C@H](C(=O)N[C@H](c1ccc([C@@H](CO)N(CCC(C)(C)C)S(=O)(=O)c2ccc3ncnn3c2)s1)C(F)(F)F)C(c1ccccc1)c1ccccc1` [Example 118, N-[(1S)-1-(5-{(1R)-1-[(3,3-dimethylbutyl)([1,2,4]triazolo[1,5-a]pyridin-6-ylsulfonyl)amino]-2-hydroxyethyl}thiophen-2-yl)-2,2,2-trifluoroethyl]-Nalpha-(methoxycarbonyl)-beta-phenyl-L-phenylalaninamide], the negative logarithm of the IC50 (pIC50) was 8.61.

As for `COC(=O)N[C@H](C(=O)N[C@H](c1ccc([C@@H](CO)N(CCC(C)(C)C)S(=O)(=O)c2ccc3nn[nH]c3c2)s1)C(F)(F)F)C(c1ccccc1)c1ccccc1` [Example 101, N-[(1S)-1-(5-{(1R)-1-[(1H-benzotriazol-6-ylsulfonyl)(3,3-dimethylbutyl)amino]-2-hydroxyethyl}thiophen-2-yl)-2,2,2-trifluoroethyl]-Nα-(methoxycarbonyl)-β-phenyl-L-phenylalaninamide], the negative logarithm of the IC50 (pIC50) was 9.08.

In the case of `COC(=O)N[C@H](C(=O)N[C@H](c1ccc([C@@H](CO)N(CCC(F)(F)F)S(=O)(=O)c2ccc(N)cc2)s1)C(F)(F)F)C(c1ccccc1)c1ccccc1` [Example 85, N-[(1S)-1-{5-[(1R)-1-{[(4-aminophenyl)sulfonyl](3,3,3-trifluoropropyl)amino}-2-hydroxyethyl]thiophen-2-yl}-2,2,2-trifluoroethyl]-Nα-(methoxycarbonyl)-β-phenyl-L-phenylalaninamide], the negative logarithm of the IC50 (pIC50) was 9.48.

`COC(=O)N[C@H](C(=O)N[C@H](c1ccc([C@@H](CO)N(CCC(C)(C)C)S(=O)(=O)c2ccc(-n3cnnn3)cc2)s1)C(F)(F)F)C(c1ccccc1)c1ccccc1` [Example 111, N-((1S)-1-{5-[(1R)-1-((3,3-dimethylbutyl){[4-(1H-tetrazol-1-yl)phenyl]sulfonyl}amino)-2-hydroxyethyl]-2-thienyl}-2,2,2-trifluoroethyl)-Nα-(methoxycarbonyl)-β-phenyl-L-phenylalaninamide]: the negative logarithm of the IC50 (pIC50) was 7.71.

For `COC(=O)N[C@H](C(=O)NCc1ccc(C(CO)N(Cc2cccnc2OC)S(=O)(=O)c2ccc3scnc3c2)s1)C(c1ccccc1)c1ccccc1` (some centres unmarked) [Example 26], the pIC50 was 7.51.

Consider `COC(=O)N[C@H](C(=O)NCc1ccc([C@@H](CO)N(CC2CC(F)(F)C2)S(=O)(=O)c2cccc(C(=O)c3ccccn3)c2)s1)C(c1ccccc1)c1ccccc1` [Example 40], for which the negative logarithm of the IC50 (pIC50) was 6.76.

Take `COC(=O)N[C@H](C(=O)N[C@H](c1ccc([C@@H](CO)N(CCC(C)(C)C)S(=O)(=O)c2ccc3nccn3c2)s1)C(F)(F)F)C(c1ccccc1)c1ccccc1` [Example 71, N-[(1S)-1-(5-{(1R)-1-[(3,3-dimethylbutyl)(imidazo[1,2-a]pyridin-6-ylsulfonyl)amino]-2-hydroxyethyl}thiophen-2-yl)-2,2,2-trifluoroethyl]-Nα-(methoxycarbonyl)-β-phenyl-L-phenylalaninamide]: the pIC50 was 8.18.

Turning to `COC(=O)N[C@H](C(=O)N[C@H](c1ccc([C@@H](CO)N(CCC(C)(C)C)S(=O)(=O)c2ccc(N)cn2)s1)C(F)(F)F)C(c1ccccc1)c1ccccc1` [Example 57, N-[(1S)-1-{5-[(1R)-1-{[(5-aminopyridin-2-yl)sulfonyl](3,3-dimethylbutyl)amino}-2-hydroxyethyl]thiophen-2-yl}-2,2,2-trifluoroethyl]-Nα-(methoxycarbonyl)-β-phenyl-L-phenylalaninamide], the pIC50 is 8.88.

Consider `CC(C)CN(C(CO)c1ccc(CNC(=O)C(NC(=O)c2ccccc2)C(c2ccccc2)c2ccncc2F)s1)S(=O)(=O)c1ccc2ncsc2c1` (centres unmarked) [Example 124, N-[1-[[5-[1-(1,3-benzothiazol-6-ylsulfonyl(isobutyl)amino)-2-hydroxy-ethyl]-2-thienyl]methylcarbamoyl]-2-(3-fluoro-4-pyridyl)-2-phenyl-ethyl]benzamide], for which the negative logarithm of the IC50 (pIC50) is 6.25.

On to `COC(=O)N[C@H](C(=O)NCc1ccc(C(CO)N(CC2CC(F)(F)C2)S(=O)(=O)c2ccc3c(c2)CCC3O)s1)C(c1ccccc1)c1ccccc1` (some centres unmarked) [Example 36], for which the negative logarithm of the IC50 (pIC50) was 8.44.

For `CC(C)CN(C(CO)c1ccc(CNC(=O)C(NC(=O)c2ccccc2)C(c2ccccc2)c2c[nH]nc2-c2ccccc2)s1)S(=O)(=O)c1ccc2ncsc2c1` (centres unmarked) [Example 130, N-[1-[[5-[1-(1,3-benzothiazol-6-ylsulfonyl(isobutyl)amino)-2-hydroxy-ethyl]-2-thienyl]methylcarbamoyl]-2-phenyl-2-(3-phenyl-1H-pyrazol-4-yl)ethyl]benzamide], the pIC50 is 6.02.

For `CCC(NC(=O)[C@@H](NC(=O)OC)C(c1ccccc1)c1ccccc1)c1ccc(C(CO)N(CCC(C)C)S(=O)(=O)c2ccc(CO)cc2)s1` (some centres unmarked) [Example 9], the pIC50 is 9.20.
